# Test results from ChEMBL document CHEMBL6078713, “Synthesis and mechanistic studies of 4-aminoquinoline-Isatin molecular hybrids and Schiff's bases as promising antimicrobial agents” (Eur J Med Chem, 2025).
# Activity calls are given as the source filed them. No cut-off for these calls is given here.
# Tests used:
# [1] = tested on: Enterococcus faecalis; experiment: Synergistic antibacterial activity against Enterococcus faecalis MTCC 439 assessed as inhibition of bacterial growth incubated overnight in presence of ciprofloxacin by serial dilution based spectrophotometer; type: functional
# [2] = tested on: Salmonella typhi; experiment: Synergistic antibacterial activity against Salmonella typhi assessed as fractional inhibitory concentration index incubated overnight in presence of ciprofloxacin by microdilution checkerboard assay; type: functional, Salmonella enterica subsp. enterica serovar Typhi
# [3] = tested on: Salmonella typhi; experiment: Antibacterial activity against Salmonella typhi assessed as diameter of zone of inhibition at MIC incubated overnight by disk diffusion method; type: functional, Salmonella enterica subsp. enterica serovar Typhi
# [4] = tested on: Escherichia coli; experiment: Antibacterial activity against Escherichia coli MTCC 443 assessed as diameter of zone of inhibition at 2 times MIC incubated overnight by disk diffusion method; type: functional
# [5] = tested on: Escherichia coli; experiment: Antibacterial activity against Escherichia coli MTCC 443 assessed as diameter of zone of inhibition at MIC incubated overnight by disk diffusion method; type: functional
# [6] = tested on: Salmonella typhi; experiment: Antibacterial activity against Salmonella typhi assessed as diameter of zone of inhibition at 500 ug/ml by agar disk diffusion method; type: functional, Salmonella enterica subsp. enterica serovar Typhi; settings: Salmonella enterica, read-out: DIZ
# [7] = tested on: Escherichia coli; experiment: Synergistic antibacterial activity against Escherichia coli MTCC 443 assessed as fractional inhibitory concentration index incubated overnight in presence of ciprofloxacin by microdilution checkerboard assay; type: functional
# [8] = tested on: Bacillus subtilis; experiment: Synergistic antibacterial activity against Bacillus subtilis MTCC 736 assessed as inhibition of bacterial growth incubated overnight in presence of ciprofloxacin by serial dilution based spectrophotometer; type: functional
# [9] = tested on: Enterococcus faecalis; experiment: Antibacterial activity against Enterococcus faecalis MTCC 439 assessed as diameter of zone of inhibition at MIC incubated overnight by disk diffusion method; type: functional
# [10] = tested on: Pseudomonas aeruginosa; experiment: Bactericidal activity against Pseudomonas aeruginosa MTCC 2453 assessed as inhibition of bacterial growth incubated overnight; type: functional
# [11] = tested on: Escherichia coli; experiment: Antibacterial activity against Escherichia coli MTCC 443 assessed as inhibition of bacterial growth incubated overnight by serial dilution based spectrophotometer; type: functional
# [12] = tested on: Bacillus subtilis; experiment: Bactericidal activity against Bacillus subtilis MTCC 736 assessed as inhibition of bacterial growth incubated overnight; type: functional
# [13] = tested on: Salmonella typhi; experiment: Ratio of MBC for antibacterial activity against Salmonella typhi to MIC for bactericidal activity against Salmonella typhi; type: functional, Salmonella enterica subsp. enterica serovar Typhi
# [14] = tested on: Pseudomonas aeruginosa; experiment: Antibacterial activity against Pseudomonas aeruginosa MTCC 2453 assessed as inhibition of bacterial growth incubated overnight by serial dilution based spectrophotometer; type: functional
# [15] = tested on: Staphylococcus aureus; experiment: Ratio of MBC for antibacterial activity against Staphylococcus aureus MTCC 902 to MIC for bactericidal activity against Staphylococcus aureus MTCC 902; type: functional
# [16] = tested on: Staphylococcus aureus; experiment: Antibacterial activity against Staphylococcus aureus MTCC 902 assessed as diameter of zone of inhibition at MIC incubated overnight by disk diffusion method; type: functional
# [17] = tested on: Escherichia coli; experiment: Antibacterial activity against Escherichia coli MTCC 443 assessed as diameter of zone of inhibition at 0.5 times MIC incubated overnight by disk diffusion method; type: functional
# [18] = tested on: Pseudomonas aeruginosa; experiment: Synergistic antibacterial activity against Pseudomonas aeruginosa MTCC 2453 assessed as fractional inhibitory concentration index incubated overnight in presence of ciprofloxacin by microdilution checkerboard assay; type: functional
# [19] = tested on: Salmonella typhi; experiment: Synergistic antibacterial activity against Salmonella typhi assessed as inhibition of bacterial growth incubated overnight in presence of ciprofloxacin by serial dilution based spectrophotometer; type: functional, Salmonella enterica subsp. enterica serovar Typhi; settings: Salmonella enterica
# [20] = tested on: Bacillus subtilis; experiment: Antibacterial activity against Bacillus subtilis MTCC 736 assessed as diameter of zone of inhibition at 500 ug/ml by agar disk diffusion method; type: functional; settings: read-out: DIZ
# [21] = tested on: Staphylococcus aureus; experiment: Antibacterial activity against Staphylococcus aureus MTCC 902 assessed as inhibition of bacterial growth incubated overnight by serial dilution based spectrophotometer; type: functional
# [22] = tested on: Salmonella typhi; experiment: Antibacterial activity against Salmonella typhi assessed as inhibition of bacterial growth incubated overnight by serial dilution based spectrophotometer; type: functional, Salmonella enterica subsp. enterica serovar Typhi; settings: Salmonella enterica
# [23] = tested on: Enterococcus faecalis; experiment: Antibacterial activity against Enterococcus faecalis MTCC 439 assessed as diameter of zone of inhibition at 2 times MIC incubated overnight by disk diffusion method; type: functional
# [24] = tested on: Pseudomonas aeruginosa; experiment: Antibacterial activity against Pseudomonas aeruginosa MTCC 2453 assessed as diameter of zone of inhibition at MIC incubated overnight by disk diffusion method; type: functional
# [25] = tested on: Escherichia coli; experiment: Bacteriostatic activity against Escherichia coli MTCC 443 assessed as reduction in bacterial growth at 2 times MIC measured upto 24 hrs by absorbance based assay; type: functional, organism-based
# [26] = tested on: Staphylococcus aureus; experiment: Antibacterial activity against Staphylococcus aureus MTCC 902 assessed as diameter of zone of inhibition at 2 times MIC incubated overnight by disk diffusion method; type: functional
# [27] = tested on: Enterococcus faecalis; experiment: Bactericidal activity against Enterococcus faecalis MTCC 439 assessed as inhibition of bacterial growth incubated overnight; type: functional
# [28] = tested on: Bacillus subtilis; experiment: Antibacterial activity against Bacillus subtilis MTCC 736 assessed as inhibition of bacterial growth incubated overnight by serial dilution based spectrophotometer; type: functional
# [29] = tested on: Bacillus subtilis; experiment: Antibacterial activity against Bacillus subtilis MTCC 736 assessed as diameter of zone of inhibition at 2 times MIC incubated overnight by disk diffusion method; type: functional
# [30] = tested on: Enterococcus faecalis; experiment: Antibacterial activity against Enterococcus faecalis MTCC 439 assessed as diameter of zone of inhibition at 0.5 times MIC incubated overnight by disk diffusion method; type: functional
# [31] = tested on: Enterococcus faecalis; experiment: Ratio of MBC for antibacterial activity against Enterococcus faecalis MTCC 439 to MIC for bactericidal activity against Enterococcus faecalis MTCC 439; type: functional
# [32] = tested on: Pseudomonas aeruginosa; experiment: Antibacterial activity against Pseudomonas aeruginosa MTCC 2453 assessed as diameter of zone of inhibition at 500 ug/ml by agar disk diffusion method; type: functional; settings: read-out: DIZ
# [33] = tested on: Salmonella typhi; experiment: Antibacterial activity against Salmonella typhi assessed as diameter of zone of inhibition at 2 times MIC incubated overnight by disk diffusion method; type: functional, Salmonella enterica subsp. enterica serovar Typhi
# [34] = tested on: Escherichia coli; experiment: Synergistic antibacterial activity against Escherichia coli MTCC 443 assessed as inhibition of bacterial growth incubated overnight in presence of ciprofloxacin by serial dilution based spectrophotometer; type: functional
# [35] = tested on: Staphylococcus aureus; experiment: Antibacterial activity against Staphylococcus aureus MTCC 902 assessed as diameter of zone of inhibition at 500 ug/ml by agar disk diffusion method; type: functional; settings: read-out: DIZ
# [36] = tested on: Bacillus subtilis; experiment: Synergistic antibacterial activity against Bacillus subtilis MTCC 736 assessed as fractional inhibitory concentration index incubated overnight in presence of ciprofloxacin by microdilution checkerboard assay; type: functional
# [37] = tested on: Pseudomonas aeruginosa; experiment: Synergistic antibacterial activity against Pseudomonas aeruginosa MTCC 2453 assessed as inhibition of bacterial growth incubated overnight in presence of ciprofloxacin by serial dilution based spectrophotometer; type: functional
# [38] = tested on: Pseudomonas aeruginosa; experiment: Antibacterial activity against Pseudomonas aeruginosa MTCC 2453 assessed as diameter of zone of inhibition at 2 times MIC incubated overnight by disk diffusion method; type: functional
# [39] = tested on: Escherichia coli; experiment: Ratio of MBC for antibacterial activity against Escherichia coli MTCC 443 to MIC for bactericidal activity against Escherichia coli MTCC 443; type: functional
# [40] = tested on: Pseudomonas aeruginosa; experiment: Ratio of MBC for antibacterial activity against Pseudomonas aeruginosa MTCC 2453 to MIC for bactericidal activity against Pseudomonas aeruginosa MTCC 2453; type: functional
# [41] = tested on: Enterococcus faecalis; experiment: Antibacterial activity against Enterococcus faecalis MTCC 439 assessed as inhibition of bacterial growth incubated overnight by serial dilution based spectrophotometer; type: functional
# [42] = tested on: Staphylococcus aureus; experiment: Synergistic antibacterial activity against Staphylococcus aureus MTCC 902 assessed as inhibition of bacterial growth incubated overnight in presence of ciprofloxacin by serial dilution based spectrophotometer; type: functional
# [43] = tested on: Staphylococcus aureus; experiment: Bacteriostatic activity against Staphylococcus aureus MTCC 902 assessed as reduction in bacterial growth at 2 times MIC measured upto 24 hrs by absorbance based assay; type: functional, organism-based
smiles,measurement,setting,value
Clc1ccc2c(NCC/N=C/c3ccc4ccccc4n3)ccnc2c1,MIC,[1],16 µg/mL
same,fractional inhibitory concentration index (FICI),[2],0.093
same,diameter of the inhibition zone (DIZ),[3],10 mm
same,diameter of the inhibition zone (DIZ),[4],12 mm
same,diameter of the inhibition zone (DIZ),[5],11 mm
same,zone of inhibition at 500 µg/mL,[6],11 mm
same,fractional inhibitory concentration index (FICI),[7],0.281
same,MIC,[8],32 µg/mL
same,diameter of the inhibition zone (DIZ),[9],7 mm
same,MBC,[10],512 µg/mL
same,MIC,[11],128 µg/mL
same,MBC,[12],512 µg/mL
same,Ratio,[13],1
same,MIC,[14],256 µg/mL
same,Ratio,[15],1
same,diameter of the inhibition zone (DIZ),[16],8 mm
same,diameter of the inhibition zone (DIZ),[17],11 mm
same,fractional inhibitory concentration index (FICI),[18],1.25
same,MIC,[19],4 µg/mL
same,zone of inhibition at 500 µg/mL,[20],10 mm
same,MIC,[21],512 µg/mL
same,MIC,[22],128 µg/mL
same,diameter of the inhibition zone (DIZ),[23],7 mm
same,diameter of the inhibition zone (DIZ),[24],6 mm
same,Activity,[25],Active
same,diameter of the inhibition zone (DIZ),[26],10 mm
same,MBC,[27],512 µg/mL
same,MIC,[28],128 µg/mL
same,diameter of the inhibition zone (DIZ),[29],10 mm
same,diameter of the inhibition zone (DIZ),[30],7 mm
same,Ratio,[31],2
same,zone of inhibition at 500 µg/mL,[32],10 mm
same,diameter of the inhibition zone (DIZ),[33],12 mm
same,MIC,[34],4 µg/mL
same,zone of inhibition at 500 µg/mL,[35],8 mm
same,fractional inhibitory concentration index (FICI),[36],1.25
same,MIC,[37],64 µg/mL
same,diameter of the inhibition zone (DIZ),[38],8 mm
same,Ratio,[39],1
same,Ratio,[40],2
same,MIC,[41],256 µg/mL
same,MIC,[42],256 µg/mL
same,Activity,[43],Active
